Reference: ChEMBL document CHEMBL1681641, “Discovery of substituted phenyl urea derivatives as novel long-acting β2-adrenoreceptor agonists” (Bioorg Med Chem Lett, 2011)
Converted amounts (≈) assume the structure as drawn.

Assays:
[1] = test system: Cavia porcellus; assay: Bronchocoprotective activity in guinea pig assessed as inhibition of acetylcholine-induced bronchoconstriction administered by aerosol after 24 hrs; type: functional, organism-based
[2] = molecular target: Beta-1 adrenergic receptor (Rattus norvegicus, UniProt P18090); assay: Agonist activity at beta1 adrenoceptor in rat left atria assessed as induction of ionotropic effect; type: functional
Beta-1 adrenergic receptor, sequence (P18090 whole entry): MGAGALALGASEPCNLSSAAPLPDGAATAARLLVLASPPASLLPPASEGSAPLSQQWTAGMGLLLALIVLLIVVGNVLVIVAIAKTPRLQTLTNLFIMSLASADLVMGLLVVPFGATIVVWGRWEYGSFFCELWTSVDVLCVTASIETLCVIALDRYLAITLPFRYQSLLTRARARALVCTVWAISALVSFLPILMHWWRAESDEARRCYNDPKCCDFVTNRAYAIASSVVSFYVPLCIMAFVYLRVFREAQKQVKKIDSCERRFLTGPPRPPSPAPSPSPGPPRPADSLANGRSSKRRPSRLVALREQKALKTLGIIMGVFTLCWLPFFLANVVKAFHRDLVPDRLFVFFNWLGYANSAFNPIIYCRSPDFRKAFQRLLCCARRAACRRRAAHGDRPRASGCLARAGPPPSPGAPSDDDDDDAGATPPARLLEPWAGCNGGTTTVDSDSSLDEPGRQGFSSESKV

[3] = Bronchodialatory activity in guinea pig trachea assessed as tone recovery measured after 1 hr of drug washout; type: functional, Cavia porcellus; set-up: concentration or dose not given beside the values
[4] = test system: Cavia porcellus; assay: Bronchocoprotective activity in guinea pig assessed as inhibition of acetylcholine-induced bronchoconstriction administered by aerosol after 4 hrs; type: functional, organism-based
[5] = molecular target: Beta-2 adrenergic receptor (Cavia porcellus, UniProt Q8K4Z4); assay: Agonist activity at beta2 adrenoceptor in guinea pig tracheal rings assessed as relaxation of tracheal smooth muscle; type: functional, tissue-based, Trachea
Beta-2 adrenergic receptor, sequence (Q8K4Z4 whole entry): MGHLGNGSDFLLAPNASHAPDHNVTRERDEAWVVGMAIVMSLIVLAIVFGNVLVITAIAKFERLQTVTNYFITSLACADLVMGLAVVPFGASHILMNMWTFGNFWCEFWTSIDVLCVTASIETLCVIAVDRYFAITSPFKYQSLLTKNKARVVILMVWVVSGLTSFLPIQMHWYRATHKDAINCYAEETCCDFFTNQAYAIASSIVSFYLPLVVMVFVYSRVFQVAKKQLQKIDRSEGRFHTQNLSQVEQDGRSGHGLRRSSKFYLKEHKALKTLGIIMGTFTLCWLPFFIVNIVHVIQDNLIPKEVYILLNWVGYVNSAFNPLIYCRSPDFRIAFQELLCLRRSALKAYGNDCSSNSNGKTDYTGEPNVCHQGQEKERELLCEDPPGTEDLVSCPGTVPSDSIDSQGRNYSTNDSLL

Structure (SMILES) | IC50 [1] | EC50 [2] | Activity [3] | IC50 [4] | EC50 [5]
O=C(Nc1ccccc1)Nc1cccc(CCNCC(O)c2ccc(O)c3[nH]c(=O)ccc23)c1 (stereo unspecified) | 3 µg/mL (≈ 6.54 µM) | > 10 µM | 12% | 0.2 µg/mL (≈ 0.436 µM) | 0.07 nM
O=C(NCc1ccccc1)Nc1cccc(CCNCC(O)c2ccc(O)c3[nH]c(=O)ccc23)c1 (stereo unspecified) | > 100 µg/mL | 0.9 µM | 15% | 0.3 µg/mL (≈ 0.635 µM) | 0.2 nM
O=C(NCCc1ccccc1)Nc1cccc(CCNCC(O)c2ccc(O)c3[nH]c(=O)ccc23)c1 (stereo unspecified) | > 10 µg/mL | > 10 µM | 9% | 2 µg/mL (≈ 4.11 µM) | 0.09 nM
O=C(NCCCc1ccccc1)Nc1cccc(CCNCC(O)c2ccc(O)c3[nH]c(=O)ccc23)c1 (stereo unspecified) | 3 µg/mL (≈ 5.99 µM) | > 10 µM | 2% | 1 µg/mL (≈ 2 µM) | 0.05 nM
NC(=O)c1cccc(CNC(=O)Nc2cccc(CCNCC(O)c3ccc(O)c4[nH]c(=O)ccc34)c2)c1 (stereo unspecified) |  |  | 52% |  | 0.13 nM
COc1ccccc1CNC(=O)Nc1cccc(CCNCC(O)c2ccc(O)c3[nH]c(=O)ccc23)c1 (stereo unspecified) |  | 0.55 µM | 23% |  | 0.2 nM
O=C(NCc1ccc(F)cc1)Nc1cccc(CCNCC(O)c2ccc(O)c3[nH]c(=O)ccc23)c1 (stereo unspecified) |  | 6.3 µM | 16% |  | 0.2 nM
O=C(NCc1c(Cl)cccc1Cl)Nc1cccc(CCNCC(O)c2ccc(O)c3[nH]c(=O)ccc23)c1 (stereo unspecified) | > 100 µg/mL | 1.6 µM | 4% | 4 µg/mL (≈ 7.39 µM) | 0.2 nM
O=C(Nc1cccc(CCNCC(O)c2ccc(O)c3[nH]c(=O)ccc23)c1)NC(c1ccccc1)c1ccccc1 (stereo unspecified) | 1.5 µg/mL (≈ 2.73 µM) | 8.89 µM | 2% | 1 µg/mL (≈ 1.82 µM) | 0.2 nM
O=C(Nc1cccc(CCNCC(O)c2ccc(O)c3[nH]c(=O)ccc23)c1)Nc1ccccc1-c1ccccc1 (stereo unspecified) | 7 µg/mL (≈ 13.1 µM) | 5.77 µM | 4% | 3 µg/mL (≈ 5.61 µM) | 0.7 nM
O=C(NCC12CC3CC(CC(C3)C1)C2)Nc1cccc(CCNCC(O)c2ccc(O)c3[nH]c(=O)ccc23)c1 (stereo unspecified) |  | 0.296 µM | 8% |  | 3.2 nM
O=C(Nc1cccc(CCNCC(O)c2ccc(O)c3[nH]c(=O)ccc23)c1)Nc1cccc(Oc2ccccc2)c1 (stereo unspecified) |  | 10 µM | 0% |  | 1 nM
CC(C)(C)c1ccc(CNC(=O)Nc2cccc(CCNCC(O)c3ccc(O)c4[nH]c(=O)ccc34)c2)cc1 (stereo unspecified) |  |  | 5% |  | 0.9 nM
NC(=O)C(c1ccccc1)(c1ccccc1)[C@@H]1CCN(CCc2ccc3c(c2)CCO3)C1 [DARIFENACIN] | 12 µg/mL (≈ 28.1 µM) | 2.31 µM | 0% | 5 µg/mL (≈ 11.7 µM) | 1 nM
